Reference: patent publication US5962502A, “Polyamidic acid derivatives with antigastrin activity, a method for their preparation, and their pharmaceutical use” (priority 1993, dated 1999)

Tests used:
mouse = assay: Black and White Box test in the mouse (anxiolytic activity); format: in vivo; details: for LIGHT TIME TOTAL TIME / LIGHT-DARK MOVEMENTS / MOV. DARK % TOTAL MOV. / TOTAL MOVEMENTS: 5 minutes; for anxiolytic activity, result in words: Black and White Box test, IP; for increase in the number of light-dark movements in comparison with the controls: summary over doses
Procedure: It has recently been postulated that the central CCK-B receptor has an important role in anxiety. This is in accordance with studies also carried out in man, which have shown that the central CCK-B mechanisms have an important function in the mediation of panic attacks [Bradwejn, H. et al; J. Psychopharmacology 6 (1992), 345]. […] This experimental model, which was carried out according to Costall et al [Pharm. Biochem. Behav. 32 (1989), 777-785], used a box with dimensions of 45×21×21(h) cm divided into 2 compartments which communicated with one another through a 13×5 cm hole. The smaller compartment (1/3 of the total area) had black walls, whereas the larger had transparent walls and was illuminated by a lamp which was placed 20 cm above the box and supplied light at 20W. Under the floor there was an activity meter which recorded the movements performed by the animal in the individual compartments. The experiment was started by placing the animal in the centre of the illuminated box; as well as movements, the time which the animal spent in the dark and in the light areas and the number of movements between the 2 compartments were then recorded for 5 minutes. A control animal generally preferred to stay in the dark compartment where it felt better protected from an unusual environmental situation which put it in a state of anxiety. In this experimental model, a compound having anxiolytic activity decreased the % of movements into the dark in comparison with the total movements, increased the movements between the two light-dark compartments, and increased the % of time spent in the light in comparison with the total time.
The results obtained are shown in Table 7, where the activities obtained with compounds 9, 21 and 51 are given, tested in comparison with diazepam.

CCK-A = biological target: T1, CCK-A (Cavia porcellus, UniProt Q63931); assay: Anti-CCK-A activity on guinea-pig gall bladder stimulated in vitro by CCK-8; details: for Ratio I/II (CCK-A IC50 / CCK-B IC50): gall bladder IC50 over gastric mucous cells IC50; for IC50: guinea-pig gall bladder in vitro, CCK-8 10 ng/ml, read-out: CCK-A-antagonistic activity IC50 (I)
T1 construct: A longitudinal strip of guinea-pig gall-bladder was put in a bath for isolated organs; from tissue; host or cells: guinea-pig gall bladder longitudinal strip
T1 sequence (Q63931 1-430): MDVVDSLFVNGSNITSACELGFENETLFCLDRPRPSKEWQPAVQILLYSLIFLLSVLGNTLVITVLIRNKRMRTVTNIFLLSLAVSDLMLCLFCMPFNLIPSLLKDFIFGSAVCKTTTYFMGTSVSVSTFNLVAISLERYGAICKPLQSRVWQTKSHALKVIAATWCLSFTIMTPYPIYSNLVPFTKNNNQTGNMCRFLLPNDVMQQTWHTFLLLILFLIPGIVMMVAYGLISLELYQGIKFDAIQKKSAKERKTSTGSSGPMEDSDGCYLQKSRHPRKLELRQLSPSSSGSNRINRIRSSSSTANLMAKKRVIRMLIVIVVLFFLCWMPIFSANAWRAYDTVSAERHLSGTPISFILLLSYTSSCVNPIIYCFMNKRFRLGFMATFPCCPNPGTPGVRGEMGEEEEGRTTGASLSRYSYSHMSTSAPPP
Procedure: The experimental model used was guinea-pig gall bladder stimulated in vitro by CCK-8, with the use of lorglumide as the reference standard. A longitudinal strip of guinea-pig gall-bladder was put in a bath for isolated organs in the presence of Krebs buffer at a temperature of 32° C., with continuous oxygenation with an oxygen-CO2 mixture (95-[…]). The isometric contractions were detected by means of a force transducer and recorded.

O=C(CC[C@@H](NC(=O)c1cc(Cl)cc(Cl)c1)C(=O)N1CCC2(CCCC2)CC1)N[C@H](Cc1ccccc1)C(=O)O [Compound 9, (R,R)-1[(1-carboxy-2-phenylethyl)amino]-1 oxo-5-(8-azaspiro[4.5]decan-8-yl)-4-(3,5-dichloro-benzoylamino)-5-oxopentanoic acid]
EFF. % VS CONTROL (LIGHT TIME TOTAL TIME) (mouse; 0.1 mg/kg IP): 17%
EFF. % VS CONTROL (LIGHT-DARK MOVEMENTS) (mouse; 0.1 mg/kg IP): 6%
EFF. % VS CONTROL (MOV. DARK % TOTAL MOV.) (mouse; 0.1 mg/kg IP): 0%
LIGHT TIME TOTAL TIME (mouse; 0.1 mg/kg IP): 31.0%
LIGHT-DARK MOVEMENTS (mouse; 0.1 mg/kg IP): 16.1
MOV. DARK % TOTAL MOV. (mouse; 0.1 mg/kg IP): 59%
TOTAL MOVEMENTS (mouse; 0.1 mg/kg IP): 505
EFF. % VS CONTROL (LIGHT TIME TOTAL TIME) (mouse; 1.0 mg/kg IP): 36%
EFF. % VS CONTROL (LIGHT-DARK MOVEMENTS) (mouse; 1.0 mg/kg IP): 31%
EFF. % VS CONTROL (MOV. DARK % TOTAL MOV.) (mouse; 1.0 mg/kg IP): -7%
LIGHT TIME TOTAL TIME (mouse; 1.0 mg/kg IP): 36.1%
LIGHT-DARK MOVEMENTS (mouse; 1.0 mg/kg IP): 19.9
MOV. DARK % TOTAL MOV. (mouse; 1.0 mg/kg IP): 55%
TOTAL MOVEMENTS (mouse; 1.0 mg/kg IP): 493
EFF. % VS CONTROL (LIGHT TIME TOTAL TIME) (mouse; 10.0 mg/kg IP): 26%
EFF. % VS CONTROL (LIGHT-DARK MOVEMENTS) (mouse; 10.0 mg/kg IP): 16%
EFF. % VS CONTROL (MOV. DARK % TOTAL MOV.) (mouse; 10.0 mg/kg IP): -7%
LIGHT TIME TOTAL TIME (mouse; 10.0 mg/kg IP): 33.5%
LIGHT-DARK MOVEMENTS (mouse; 10.0 mg/kg IP): 17.7
MOV. DARK % TOTAL MOV. (mouse; 10.0 mg/kg IP): 55%
TOTAL MOVEMENTS (mouse; 10.0 mg/kg IP): 503
anxiolytic activity, result in words (mouse): anxiolytic activity without sedative activity
increase in the number of light-dark movements in comparison with the controls (mouse): 20-30%
Ratio I/II (CCK-A IC50 / CCK-B IC50) (CCK-A): 108
IC50 (CCK-A): 5.4 µM

O=C(CC[C@@H](NC(=O)c1cc(Cl)cc(Cl)c1)C(=O)N1CCC2(CCCC2)CC1)N[C@H](Cc1c[nH]c2ccccc12)C(=O)O [Compound 21]
EFF. % VS CONTROL (LIGHT TIME TOTAL TIME) (mouse; 0.03 mg/kg IP): 11%
EFF. % VS CONTROL (LIGHT-DARK MOVEMENTS) (mouse; 0.03 mg/kg IP): 26%
EFF. % VS CONTROL (MOV. DARK % TOTAL MOV.) (mouse; 0.03 mg/kg IP): -6%
LIGHT TIME TOTAL TIME (mouse; 0.03 mg/kg IP): 28.9%
LIGHT-DARK MOVEMENTS (mouse; 0.03 mg/kg IP): 18.2
MOV. DARK % TOTAL MOV. (mouse; 0.03 mg/kg IP): 62%
TOTAL MOVEMENTS (mouse; 0.03 mg/kg IP): 522
EFF. % VS CONTROL (LIGHT TIME TOTAL TIME) (mouse; 0.3 mg/kg IP): 30%
EFF. % VS CONTROL (LIGHT-DARK MOVEMENTS) (mouse; 0.3 mg/kg IP): 37%
EFF. % VS CONTROL (MOV. DARK % TOTAL MOV.) (mouse; 0.3 mg/kg IP): -1.1%
LIGHT TIME TOTAL TIME (mouse; 0.3 mg/kg IP): 33.9%
LIGHT-DARK MOVEMENTS (mouse; 0.3 mg/kg IP): 19.8
MOV. DARK % TOTAL MOV. (mouse; 0.3 mg/kg IP): 57%
TOTAL MOVEMENTS (mouse; 0.3 mg/kg IP): 499
EFF. % VS CONTROL (LIGHT TIME TOTAL TIME) (mouse; 3.0 mg/kg IP): 24%
EFF. % VS CONTROL (LIGHT-DARK MOVEMENTS) (mouse; 3.0 mg/kg IP): 26%
EFF. % VS CONTROL (MOV. DARK % TOTAL MOV.) (mouse; 3.0 mg/kg IP): -9%
LIGHT TIME TOTAL TIME (mouse; 3.0 mg/kg IP): 32.4%
LIGHT-DARK MOVEMENTS (mouse; 3.0 mg/kg IP): 18.2
MOV. DARK % TOTAL MOV. (mouse; 3.0 mg/kg IP): 60%
TOTAL MOVEMENTS (mouse; 3.0 mg/kg IP): 495
anxiolytic activity, result in words (mouse): anxiolytic activity without sedative activity
increase in the number of light-dark movements in comparison with the controls (mouse): 20-30%
Ratio I/II (CCK-A IC50 / CCK-B IC50) (CCK-A): 940
IC50 (CCK-A): 9.4 µM
